Results taken from patent US10890557B2, “Electrochemical biosensor” (I-SENS, INC., priority 2014, dated 2021).

Key:
[1] = Stability test: UV-visible spectrum change over time in aqueous solution; format: physicochemical
Experimental: Specifically, the UV-visible spectrum of an aqueous solution of 1 mg of each osmium complex, ruthenium hexamine, and Ferricyanide dissolved in 1 mL of 0.1 M PBS (pH 7.4) was measured and stored at room temperature for 11 days.

[2] = system: FAD-glucose dehydrogenase (FAD-GDH); format: biochemical; conditions: pH 7.4
Experimental: To verify the electrochemical properties of osmium complex, cyclic voltammetry was performed. Using a carbon electrode as the working electrode, platinum as the auxiliary electrode, and an Ag/AgCl (sat. KCl) electrode as a reference electrode, the current was measured by changing the glucose concentration in a mixed solution including FAD-glucose dehydrogenase (FAD-GDH) 10 mg/mL, osmium complex 30 mmol and 0.1 M PBS (pH 7.4).

[3] = Source text: In subsequent examples, an osmium complex sodium salt was used by substituting the osmium complex with NaOH at 1:3 equivalent ratios.

Molecule	UV-visible spectrum change over time ([1]; 1 mg in 1 mL 0.1 M PBS (pH 7.4), room temperature, 11 days)	response slope [2]	solubility in water [3]	UV-visible spectrum change over time ([1]; pH 7.4)
N.N.N.N.N.N.[Cl-].[Cl-].[Cl-].[Ru+3] [ruthenium hexamine, Hexamine ruthenium chloride [Ru(NH3)6Cl3], reference compound]	no change in the UV-visible spectrum was observed over time	–	–	–
Os(dcbpy)2Cl2 [osmium complex]	–	77.1 nA/(mg/dL)	low solubility in water	the absorbance of absorption peaks at 400 nm and 520 mm decreased with time
